# Measurements as given in article PMC11237694, “Novel pentafluorosulfanyl-containing triclocarban analogs selectively kill Gram-positive bacteria” (Microbiology Spectrum, 2024).
# Columns and labels:
# [1] = system: S. epidermidis ATCC 12228; test: Planktonic susceptibility (MIC/MBC), 96-well broth microdilution; type: cell-based, Staphylococcus epidermidis; settings: Staphylococcus epidermidis; for MBC: ATCC12228; for MIC: ATCC12228, planktonic, overnight 37°C in MHB
# Protocol: (§1) All bacterial strains subjected to testing had been stored at −70°C prior to the experiment. The experiment commenced by streaking small amounts of the frozen bacterial samples onto Muller-Hinton agar (MHA) culture medium (BD Bacto, Oxoid, Basingstoke, UK Cat# X296B) and allowing for overnight incubation. Bacteria were re-cultured on MHA plates as required to confirm colony morphology and lack of contamination. Strains tested were P. aeruginosa ATCC 27853, E. coli ATCC 25922, Staphylococcus aureus ATCC 25923, MRSA ATCC 33591, S. epidermidis ATCC 12228, Klebsiella pneumoniae ATCC, P. mirabilis ATCC 35659, and 10 clinical isolates of MRSA from Foothills Hospital, Calgary, Canada. To prepare for susceptibility testing, a protocol modified from Lemire et al was used ([28]). MHB was swab-inoculated from MHA colonies and shake-incubated until turbid. Dilution of the broth with 0.9% saline was performed as necessary to match a 1.0 McFarland standard.
# (§2) MIC and MBC assessments were conducted on all bacterial strains using 96-well microtiter plates. To prepare the wells for bacteria, serial dilutions of the antibacterial agents were carried out along the rows of two microtiter plates. The antibacterials were 2-fold diluted with Mueller-Hinton broth (MHB) in each column, reaching a volume of 75 µL. The 1.0 McFarland standard was diluted 15-fold in MHB, and 75 µL of inoculum was added to the wells treated with antibacterials, resulting in a total volume of 150 µL. The microtiter plates were covered and then shake-incubated overnight at 150 rpm and 37°C. MIC was determined based on visible bacterial growth. In cases of antibacterial opacity or ambiguous results, streaking of well cultures on MHA, overnight incubation, and subsequent comparison with controls were performed. MBC was determined by transferring 3 µL of culture from all MIC microtiter plate wells to 147 µL of Mueller-Hinton broth in fresh plates. These plates were shake-incubated overnight at 150 rpm and 37°C, and bacterial growth was visually inspected.
# E. coli ATCC 25922 = test: as above; type: cell-based; settings: Escherichia coli; for MBC: ATCC25922; for MIC: ATCC25922, planktonic, overnight 37°C in MHB
# Protocol: as §1, §2
# P. mirabilis ATCC 35659 = test: as above; type: cell-based; settings: Proteus mirabilis; for MBC: ATCC35659; for MIC: ATCC35659, planktonic, overnight 37°C in MHB
# Protocol: as §1, §2
# P. aeruginosa ATCC 27853 = test: as above; type: cell-based; settings: Pseudomonas aeruginosa; for MBC: ATCC27853; for MIC: ATCC27853, planktonic, overnight 37°C in MHB
# Protocol: as §1, §2
# [2] = system: Staphylococcus aureus ATCC 25923; test: as above; type: cell-based; settings: Staphylococcus aureus, ATCC25923, S. aureus; for MIC: planktonic, overnight 37°C in MHB
# Protocol: as §1, §2
# [3] = system: Klebsiella pneumoniae ATCC; test: as above; type: cell-based; settings: K. pneumonia; for MIC: planktonic, overnight 37°C in MHB
# Protocol: as §1, §2
# [4] = system: 10 clinical isolates of MRSA from Foothills Hospital, Calgary; test: Planktonic susceptibility (MIC/MBC) of MRSA clinical isolates; type: cell-based, methicillin-resistant S. aureus; settings: Staphylococcus aureus
# Protocol: as §1
# as §2, with “In cases of antibacterial opacity or ambiguous results, streaking of well cultures on MHA, overnight incubation, and subsequent comparison with controls were performed.” left out
# MRSA ATCC 33591 = test: Planktonic susceptibility (MIC/MBC), 96-well broth microdilution; type: cell-based, methicillin-resistant S. aureus; settings: Staphylococcus aureus, MRSA reference strain
# Protocol: as §1
# as §2, with “In cases of antibacterial opacity or ambiguous results, streaking of well cultures on MHA, overnight incubation, and subsequent comparison with controls were performed.” left out
# Gram-positive bacteria = system: Gram-positive bacteria; parameters: method as in PMID 12534815; settings: cited from earlier work
# Gram-negative pathogens = system: Gram-negative pathogens; parameters: method as in PMID 12534815; settings: cited from earlier work
SMILES,MBC [1],MIC [1],MBC (E. coli ATCC 25922),MIC (E. coli ATCC 25922),MBC (P. mirabilis ATCC 35659),MIC (P. mirabilis ATCC 35659),MBC (P. aeruginosa ATCC 27853),MIC (P. aeruginosa ATCC 27853),MBC [2],MIC [2],MBC [3],MIC [3],MBC ([4]; MRSA #1 clinical isolate),MIC ([4]; MRSA #1 clinical isolate),MBC ([4]; MRSA #2 clinical isolate),MIC ([4]; MRSA #2 clinical isolate),MBC ([4]; MRSA #3 clinical isolate),MIC ([4]; MRSA #3 clinical isolate),MBC ([4]; MRSA #4 clinical isolate),MIC ([4]; MRSA #4 clinical isolate),further results
"O=C(O)c1cn(C2CC2)c2cc(N3CCNCC3)c(F)cc2c1=O [Cip, Ciprofloxacin, reference compound]",1200 µM,1200 µM,2 µM,2 µM,800 µM,20 µM,2400 µM,61 µM,80 µM,80 µM,500 µM,10 µM,,,,,,,,,
"O=C(Nc1ccc(Cl)cc1)Nc1cc(S(F)(F)(F)(F)F)ccc1Cl [EBP-40, 1-(2-Chloro-5-(pentafluoro-λ^6-sulfanyl)phenyl)-3-(4-chlorophenyl)urea]",900 µM,1200 µM,,,625 µM,625 µM,,,1200 µM,480 µM,> 5000 µM,> 5000 µM,1200 µM,20 µM,40 µM,20 µM,160 µM,80 µM,160 µM,40 µM,"MBC ([4]; MRSA #5 clinical isolate): 40 µM; MIC ([4]; MRSA #5 clinical isolate): 20 µM; MBC ([4]; MRSA #6 clinical isolate): 160 µM; MIC ([4]; MRSA #6 clinical isolate): 40 µM; MBC ([4]; MRSA #7 clinical isolate): 80 µM; MIC ([4]; MRSA #7 clinical isolate): 40 µM; MBC ([4]; MRSA #8 clinical isolate): 80 µM; MIC ([4]; MRSA #8 clinical isolate): 40 µM; MBC ([4]; MRSA #9 clinical isolate): 80 µM; MIC ([4]; MRSA #9 clinical isolate): 20 µM; MBC (MRSA ATCC 33591): 610 µM; MIC (MRSA ATCC 33591; planktonic, overnight 37°C in MHB): 150 µM"
"CNC(C)C1CCC(N)C(OC2C(N)CC(N)C(OC3OCC(C)(O)C(NC)C3O)C2O)O1 (stereo not shown) [Gen, Gentamicin, reference compound]",300 µM,300 µM,10 µM,10 µM,50 µM,1 µM,1200 µM,12 µM,40 µM,40 µM,50 µM,1 µM,1600 µM,100 µM,200 µM,50 µM,50 µM,50 µM,50 µM,50 µM,MBC ([4]; MRSA #5 clinical isolate): 6250 µM; MIC ([4]; MRSA #5 clinical isolate): 800 µM; MBC ([4]; MRSA #6 clinical isolate): 25000 µM; MIC ([4]; MRSA #6 clinical isolate): 3000 µM; MBC ([4]; MRSA #7 clinical isolate): 1600 µM; MIC ([4]; MRSA #7 clinical isolate): 50 µM; MBC ([4]; MRSA #8 clinical isolate): 50 µM; MIC ([4]; MRSA #8 clinical isolate): 50 µM; MBC ([4]; MRSA #9 clinical isolate): 50 µM; MIC ([4]; MRSA #9 clinical isolate): 50 µM; MBC ([4]; MRSA #10 clinical isolate): 50 µM; MIC ([4]; MRSA #10 clinical isolate): 50 µM
"O=C(Nc1ccc(Cl)cc1)Nc1ccc(Cl)c(Cl)c1 [TCC, triclocarban]",,,,,,,,,,,,,,,,,,,,,antibacterial action against Gram-positive bacteria (Gram-positive bacteria): antibacterial action; activity against Gram-negative pathogens (Gram-negative pathogens): no activity
"O=C(Nc1ccc(Cl)cc1)Nc1ccc(Cl)c(C(F)(F)F)c1 [cloflucarban, 3-trifluoromethyl-4,4′-dichlorocarbanilide]",,,,,,,,,,,,,,,,,,,,,antibacterial action against Gram-positive bacteria (Gram-positive bacteria): antibacterial action; activity against Gram-negative pathogens (Gram-negative pathogens): no activity
